Laboratory results reported in patent publication US6706663B2, “Herbicidal 3-heterocyclic substituted benzisothiazole and benzisoxazole compounds” (Wyeth, priority 2000, dated 2004).

Assays:
ZEAMX (Corn, Field) [1] = assay: Postemergence herbicidal evaluation; format: in vivo, Zea mays, L.; settings: postemergence
Procedure, shortened: (§1)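 Visual 0–9 injury scores versus control plants, covering stand, vigour, malformation, size, chlorosis and general appearance, taken four to five weeks post-spray and averaged over replicate tests. Plants were sprayed at roughly two weeks old and held on greenhouse benches.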

ZEAMX (Corn, Field) [2] = assay: Preemergence herbicidal evaluation; format: in vivo, Zea mays, L.; settings: rated 4-5 weeks after treatment
[3] = system: ECHORC (Echinochloa oryzoides); assay: Flooded paddy, preemergence weed control; format: in vivo, Echinochloa oryzoides (Ard.) Fritsch.; settings: rated 3-4 weeks after treatment, 0-9 rating scale
Procedure, shortened: (§2)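 Greenhouse paddy test, preemergence. Seeds planted in the top 0.5 cm of silt loam soil, which remained flooded at 1.5–3 cm depth. Scored 0-9 by visual comparison with control.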

GALAP (Galium aparine) [4] = assay: Postemergence herbicidal evaluation; format: in vivo; settings: postemergence
Procedure, shortened: as §1

[5] = system: SAGPY (Sagittaria pygmaea); assay: Flooded paddy, preemergence weed control; format: in vivo, L.; settings: rated 3-4 weeks after treatment, 0-9 rating scale
Procedure, shortened: as §2

[6] = system: GLXMAW (Soybean, Williams); assay: Preemergence herbicidal evaluation; format: in vivo, Glycine max, (L.) Merr. cv Williams; settings: rated 4-5 weeks after treatment
GALAP (Galium aparine) [7] = assay: Preemergence herbicidal evaluation; format: in vivo; settings: rated 4-5 weeks after treatment
Procedure, shortened: (§3)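 Preemergence soil spray, aq. acetone; greenhouse; visual 0–9 score vs control at 4–5 wk.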

[8] = system: AMBEL (Ambrosia artemisifolia); assay: Postemergence herbicidal evaluation; format: in vivo, L.; settings: postemergence
Procedure, shortened: as §1

[9] = system: CHEAL (Chenopodium album); assay: Postemergence herbicidal evaluation; format: in vivo, L.; settings: postemergence
Procedure, shortened: as §1

[10] = system: CASOB (Cassia obtusifolia); assay: Postemergence herbicidal evaluation; format: in vivo, L.; settings: postemergence
Procedure, shortened: as §1

[11] = system: ABUTH (Abutilon theophrasti); assay: Postemergence herbicidal evaluation; format: in vivo, Medic.; settings: postemergence
Procedure, shortened: as §1

CYPIR (Cyperus iria) = assay: Flooded paddy, preemergence weed control; format: in vivo; settings: rated 3-4 weeks after treatment, 0-9 rating scale
Procedure, shortened: as §2

[12] = system: IPOHE (Ipomoea hederacea); assay: Postemergence herbicidal evaluation; format: in vivo, (L.) Jacq.; settings: postemergence
Procedure, shortened: as §1

[13] = system: ECHCG (Echinochloa crus-galli); assay: Postemergence herbicidal evaluation; format: in vivo, (L.) Beau; settings: postemergence
Procedure, shortened: as §1

[14] = system: TRZAWR (Wheat, Winter, cv Riband); assay: Preemergence herbicidal evaluation; format: in vivo, Triticum aestivum; settings: rated 4-5 weeks after treatment
Procedure, shortened: as §3

[15] = system: GLXMAW (Soybean, Williams); assay: Postemergence herbicidal evaluation; format: in vivo, Glycine max, (L.) Merr. cv Williams; settings: postemergence
Procedure, shortened: as §1

[16] = system: AMBEL (Ambrosia artemisifolia); assay: Preemergence herbicidal evaluation; format: in vivo, L.; settings: rated 4-5 weeks after treatment
Procedure, shortened: as §3

[17] = system: CHEAL (Chenopodium album); assay: Preemergence herbicidal evaluation; format: in vivo, L.; settings: rated 4-5 weeks after treatment
Procedure, shortened: as §3

[18] = system: CASOB (Cassia obtusifolia); assay: Preemergence herbicidal evaluation; format: in vivo, L.; settings: rated 4-5 weeks after treatment
Procedure, shortened: as §3

ORYSAT (Rice, Tebonnet) = assay: Preemergence herbicidal evaluation; format: in vivo, Oryza sativa, (L.) Tebonnet; settings: rated 4-5 weeks after treatment
[19] = system: IPOHE (Ipomoea hederacea); assay: Preemergence herbicidal evaluation; format: in vivo, (L.) Jacq.; settings: rated 4-5 weeks after treatment

In the case of `Cn1c(C(F)(F)F)cc(=O)n(-c2ccc3snc(C4OCC5(CO4)CO5)c3c2)c1=O` (stereo not drawn) [Compound 70, 1-methyl-3-(3-spiro[m-dioxane-5,2′-oxiran]-2-yl-1,2-benzisothiazol-5-yl)-6-(trifluoromethyl)uracil], the ZEAMX herbicidal rating (ZEAMX (Corn, Field) [1]; rate 0.0320 kg/ha) is reported as 6.5, the ZEAMX herbicidal rating (ZEAMX (Corn, Field) [1]; rate 0.0620 kg/ha) is reported as 7.0 and the “Preemergence herbicidal rating ZEAMX” value (ZEAMX (Corn, Field) [2]; Rate 0.0620 kg/ha) is reported as 2.0. The “Preemergence herbicidal rating ZEAMX” value (ZEAMX (Corn, Field) [2]; Rate 0.1250 kg/ha) was 9.0, the “herbicidal rating, ECHORC” value ([3]; rate 0.0080 kg/ha) was 0.0 and the “herbicidal rating, ECHORC” value ([3]; rate 0.0320 kg/ha) was 0.0. For the same molecule, the “herbicidal rating, ECHORC” value ([3]; rate 0.1250 kg/ha) was 0.0, the GALAP herbicidal rating (GALAP (Galium aparine) [4]; rate 0.0320 kg/ha) was 8.0 and the GALAP herbicidal rating (GALAP (Galium aparine) [4]; rate 0.0620 kg/ha) was 9.0. The “herbicidal rating, SAGPY” value ([5]; rate 0.0080 kg/ha) was 0.0, the “herbicidal rating, SAGPY” value ([5]; rate 0.0320 kg/ha) was 0.0 and the “herbicidal rating, SAGPY” value ([5]; rate 0.1250 kg/ha) was 0.0. For the same molecule, the “Preemergence herbicidal rating GLXMAW” value ([6]; Rate 0.0620 kg/ha) was 3.0, the “Preemergence herbicidal rating GLXMAW” value ([6]; Rate 0.1250 kg/ha) was 9.0 and the “Preemergence herbicidal rating GALAP” value (GALAP (Galium aparine) [7]; Rate 0.0620 kg/ha) was 7.0. The “Preemergence herbicidal rating GALAP” value (GALAP (Galium aparine) [7]; Rate 0.1250 kg/ha) was 9.0, the AMBEL herbicidal rating ([8]; rate 0.0320 kg/ha) was 9.0 and the AMBEL herbicidal rating ([8]; rate 0.0620 kg/ha) was 9.0. The CHEAL herbicidal rating ([9]; rate 0.0320 kg/ha) was 9.0, the CHEAL herbicidal rating ([9]; rate 0.0620 kg/ha) was 9.0 and the CASOB herbicidal rating ([10]; rate 0.0320 kg/ha) was 5.0. It also gave a CASOB herbicidal rating ([10]; rate 0.0620 kg/ha) of 5.0, an ABUTH herbicidal rating ([11]; rate 0.0320 kg/ha) of 9.0 and an ABUTH herbicidal rating ([11]; rate 0.0620 kg/ha) of 9.0. The “herbicidal rating, CYPIR” value (CYPIR (Cyperus iria); rate 0.0080 kg/ha) was 0.0, the “herbicidal rating, CYPIR” value (CYPIR (Cyperus iria); rate 0.0320 kg/ha) was 0.0 and the “herbicidal rating, CYPIR” value (CYPIR (Cyperus iria); rate 0.1250 kg/ha) was 0.0. For the same molecule, the IPOHE herbicidal rating ([12]; rate 0.0320 kg/ha) was 7.0, the IPOHE herbicidal rating ([12]; rate 0.0620 kg/ha) was 9.0 and the ECHCG herbicidal rating ([13]; rate 0.0320 kg/ha) was 3.0. The ECHCG herbicidal rating ([13]; rate 0.0620 kg/ha) was 4.0, the “Preemergence herbicidal rating TRZAWR” value ([14]; Rate 0.0620 kg/ha) was 3.0 and the “Preemergence herbicidal rating TRZAWR” value ([14]; Rate 0.1250 kg/ha) was 7.0. For the same molecule, the GLXMAW herbicidal rating ([15]; rate 0.0320 kg/ha) was 7.0, the GLXMAW herbicidal rating ([15]; rate 0.0620 kg/ha) was 8.5 and the “Preemergence herbicidal rating AMBEL” value ([16]; Rate 0.0620 kg/ha) was 7.0. For the same molecule, the “Preemergence herbicidal rating AMBEL” value ([16]; Rate 0.1250 kg/ha) was 9.0, the “Preemergence herbicidal rating CHEAL” value ([17]; Rate 0.0620 kg/ha) was 9.0 and the “Preemergence herbicidal rating CHEAL” value ([17]; Rate 0.1250 kg/ha) was 9.0. For the same molecule, the “Preemergence herbicidal rating CASOB” value ([18]; Rate 0.0620 kg/ha) was 2.0, the “Preemergence herbicidal rating CASOB” value ([18]; Rate 0.1250 kg/ha) was 2.0 and the “Preemergence herbicidal rating ORYSAT” value (ORYSAT (Rice, Tebonnet); Rate 0.0620 kg/ha) was 3.0. The “Preemergence herbicidal rating ORYSAT” value (ORYSAT (Rice, Tebonnet); Rate 0.1250 kg/ha) was 6.0, the “Preemergence herbicidal rating IPOHE” value ([19]; Rate 0.0620 kg/ha) was 4.0 and the “Preemergence herbicidal rating IPOHE” value ([19]; Rate 0.1250 kg/ha) was 7.0.
